Test results taken from PubChem BioAssay AID248 (DTP/NCI, 2004).
Values joined by “and” are separate entries in the source; they are usually repeats but may differ in a detail not shown here. Identical values can stand only once. Toxic doses and inconclusive results are not listed.

Tested on: L1210 leukemia ip in BDF1 mice, survival T/C
Experiment: NCI In Vivo Anticancer Drug Screen. Data for tumor model L1210 Leukemia (intraperitoneal) in B6D2F1 (BDF1) mice
Conditions: endpoint: mean survival time, higher = longer survival
Method in brief: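 Read-out is survival time, reported as the treated-group measurement over the vehicle-control measurement.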

CSc1ncnc2c1ncn2C1OC(CO)C(O)C1O (stereo unspecified)
T/C (dose: 0.5 mg/kg/injection, schedule: Q#A X Z (ip), vehicle: saline): 120 % of control
T/C (dose: 0.82 mg/kg/injection, schedule: Q07DX003 (ip), vehicle: saline): 107 % of control
T/C (dose: 1.0 mg/kg/injection, schedule: Q01DX Z (ip), vehicle: saline): 113 % of control
T/C (dose: 1.25 mg/kg/injection, schedule: Q06HX068 (ip), vehicle: saline): 123 % of control
T/C (dose: 2.0 mg/kg/injection, schedule: Q01DX010 (ip), vehicle: saline): 109 % of control and 112 % of control
T/C (dose: 2.0 mg/kg/injection, schedule: Q01DX Z (ip), vehicle: saline): 123 % of control
T/C (dose: 3.25 mg/kg/injection, schedule: Q07DX003 (ip), vehicle: saline): 115 % of control
T/C (dose: 4.0 mg/kg/injection, schedule: Q01DX006 (iv), vehicle: saline): 109 % of control
T/C (dose: 4.0 mg/kg/injection, schedule: Q01DX010 (ip), vehicle: saline): 117 % of control
T/C (dose: 4.0 mg/kg/injection, schedule: Q01DX Z (im), vehicle: saline): 117 % of control
T/C (dose: 4.0 mg/kg/injection, schedule: Q01DX Z (sc), vehicle: saline): 102 % of control
T/C (dose: 5.0 mg/kg/injection, schedule: Q01DX010 (ip), vehicle: saline): 113 % of control and 122 % of control
T/C (dose: 5.0 mg/kg/injection, schedule: Q01DX017 (ip), vehicle: saline): 105 % of control
T/C (dose: 5.0 mg/kg/injection, schedule: Q#A X034 (ip), vehicle: saline): 118 % of control
T/C (dose: 6.5 mg/kg/injection, schedule: Q07DX003 (ip), vehicle: saline): 115 % of control and 121 % of control
T/C (dose: 6.65 mg/kg/injection, schedule: Q#A X Z (ip), vehicle: saline): 151 % of control
T/C (dose: 8.0 mg/kg/injection, schedule: Q01DX006 (iv), vehicle: saline): 105 % of control
T/C (dose: 8.0 mg/kg/injection, schedule: Q01DX010 (ip), vehicle: saline): 118 % of control and 124 % of control
T/C (dose: 8.0 mg/kg/injection, schedule: Q01DX Z (im), vehicle: saline): 115 % of control
T/C (dose: 8.0 mg/kg/injection, schedule: Q01DX Z (sc), vehicle: saline): 113 % of control
T/C (dose: 10.0 mg/kg/injection, schedule: Q12HX010 (ip), vehicle: saline): 119 % of control
T/C (dose: 10.0 mg/kg/injection, schedule: Q## X032 (ip), vehicle: saline): 119 % of control
T/C (dose: 12.5 mg/kg/injection, schedule: Q01DX010 (ip), vehicle: saline): 150 % of control
T/C (dose: 13.0 mg/kg/injection, schedule: Q## X004 (ip), vehicle: saline): 114 % of control
T/C (dose: 15.0 mg/kg/injection, schedule: Q01DX010 (ip), vehicle: saline): 152 % of control
T/C (dose: 15.0 mg/kg/injection, schedule: Q01DX Z (oral), vehicle: saline): 119 % of control
T/C (dose: 16.0 mg/kg/injection, schedule: Q01DX006 (iv), vehicle: saline): 112 % of control
T/C (dose: 16.0 mg/kg/injection, schedule: Q01DX Z (sc), vehicle: saline): 115 % of control
T/C (dose: 18.0 mg/kg/injection, schedule: Q01DX001 (ip), vehicle: saline): 104 % of control and 106 % of control
T/C (dose: 20.0 mg/kg/injection, schedule: Q01DX015 (ip), vehicle: saline): 153 % of control
T/C (dose: 20.0 mg/kg/injection, schedule: Q12HX006 (ip), vehicle: saline): 110 % of control
T/C (dose: 20.0 mg/kg/injection, schedule: Q12HX010 (ip), vehicle: saline): 120 % of control
T/C (dose: 20.0 mg/kg/injection, schedule: Q## X004 (ip), vehicle: saline): 121 % of control
T/C (dose: 20.0 mg/kg/injection, schedule: Q#A X034 (ip), vehicle: saline): 103 % of control
T/C (dose: 21.0 mg/kg/injection, schedule: Q## X015 (ip), vehicle: saline): 152 % of control
T/C (dose: 22.0 mg/kg/injection, schedule: Q## X032 (ip), vehicle: saline): 124 % of control
T/C (dose: 23.0 mg/kg/injection, schedule: Q03DX006 (ip), vehicle: saline): 113 % of control
T/C (dose: 25.0 mg/kg/injection, schedule: Q01DX001 (ip), vehicle: saline): 122 % of control and 124 % of control
T/C (dose: 25.0 mg/kg/injection, schedule: Q01DX005 (ip), vehicle: saline): 150 % of control
T/C (dose: 26.0 mg/kg/injection, schedule: Q01DX001 (ip), vehicle: saline): 103 % of control
T/C (dose: 27.0 mg/kg/injection, schedule: Q01DX001 (ip), vehicle: saline): 110 % of control and 120 % of control
T/C (dose: 30.0 mg/kg/injection, schedule: Q01DX003 (ip), vehicle: saline): 151 % of control
T/C (dose: 30.0 mg/kg/injection, schedule: Q01DX015 (ip), vehicle: saline): 153 % of control
T/C (dose: 30.0 mg/kg/injection, schedule: Q## X004 (ip), vehicle: saline): 121 % of control
T/C (dose: 31.0 mg/kg/injection, schedule: Q## X015 (ip), vehicle: saline): 152 % of control
T/C (dose: 32.0 mg/kg/injection, schedule: Q01DX006 (iv), vehicle: saline): 115 % of control and 117 % of control
T/C (dose: 32.0 mg/kg/injection, schedule: Q01DX Z (im), vehicle: saline): 153 % of control
T/C (dose: 32.0 mg/kg/injection, schedule: Q01DX Z (ip), vehicle: saline): 102 % of control
T/C (dose: 32.0 mg/kg/injection, schedule: Q01DX Z (sc), vehicle: saline): 151 % of control
T/C (dose: 32.0 mg/kg/injection, schedule: Q## X015 (ip), vehicle: saline): 103 % of control and 115 % of control
T/C (dose: 32.0 mg/kg/injection, schedule: Q## X032 (ip), vehicle: saline): 122 % of control
T/C (dose: 38.0 mg/kg/injection, schedule: Q01DX015 (ip), vehicle: saline): 100 % of control
T/C (dose: 39.5 mg/kg/injection, schedule: Q01DX015 (ip), vehicle: saline): 123 % of control
T/C (dose: 39.5 mg/kg/injection, schedule: Q## X015 (ip), vehicle: saline): 123 % of control
T/C (dose: 40.0 mg/kg/injection, schedule: Q01DX001 (ip), vehicle: saline): 107 % of control and 110 % of control and 112 % of control
T/C (dose: 40.0 mg/kg/injection, schedule: Q01DX017 (ip), vehicle: saline): 108 % of control
T/C (dose: 40.0 mg/kg/injection, schedule: Q12HX006 (ip), vehicle: saline): 120 % of control
T/C (dose: 45.0 mg/kg/injection, schedule: Q01DX015 (ip), vehicle: saline): 102 % of control and 110 % of control
T/C (dose: 45.0 mg/kg/injection, schedule: Q03DX006 (ip), vehicle: saline): 120 % of control
T/C (dose: 47.0 mg/kg/injection, schedule: Q## X015 (ip), vehicle: saline): 98 % of control and 103 % of control
T/C (dose: 50.0 mg/kg/injection, schedule: Q01DX001 (ip), vehicle: saline): 113 % of control and 122 % of control
T/C (dose: 50.0 mg/kg/injection, schedule: Q01DX009 (ip), vehicle: saline): 102 % of control
T/C (dose: 54.0 mg/kg/injection, schedule: Q01DX001 (ip), vehicle: saline): 120 % of control
T/C (dose: 60.0 mg/kg/injection, schedule: Q01DX001 (ip), vehicle: saline): 115 % of control
T/C (dose: 60.0 mg/kg/injection, schedule: Q01DX Z (oral), vehicle: saline): 119 % of control
T/C (dose: 61.0 mg/kg/injection, schedule: Q01DX001 (ip), vehicle: saline): 116 % of control
T/C (dose: 64.0 mg/kg/injection, schedule: Q01DX Z (im), vehicle: saline): 109 % of control
T/C (dose: 64.0 mg/kg/injection, schedule: Q01DX Z (sc), vehicle: saline): 102 % of control
T/C (dose: 80.0 mg/kg/injection, schedule: Q12HX010 (ip), vehicle: saline): 115 % of control
T/C (dose: 90.0 mg/kg/injection, schedule: Q01DX001 (ip), vehicle: saline): 121 % of control
T/C (dose: 90.0 mg/kg/injection, schedule: Q03DX006 (ip), vehicle: saline): 119 % of control
T/C (dose: 91.0 mg/kg/injection, schedule: Q01DX001 (ip), vehicle: saline): 113 % of control
T/C (dose: 100.0 mg/kg/injection, schedule: Q01DX001 (ip), vehicle: saline): 111 % of control
T/C (dose: 100.0 mg/kg/injection, schedule: Q01DX003 (ip), vehicle: saline): 117 % of control
T/C (dose: 100.0 mg/kg/injection, schedule: Q02DX008 (ip), vehicle: saline): 95 % of control
T/C (dose: 105.0 mg/kg/injection, schedule: Q07DX003 (ip), vehicle: saline): 151 % of control and 152 % of control
T/C (dose: 121.0 mg/kg/injection, schedule: Q01DX001 (ip), vehicle: saline): 119 % of control
T/C (dose: 138.0 mg/kg/injection, schedule: Q01DX001 (ip), vehicle: saline): 152 % of control
T/C (dose: 160.0 mg/kg/injection, schedule: Q12HX006 (ip), vehicle: saline): 113 % of control
T/C (dose: 180.0 mg/kg/injection, schedule: Q03DX006 (ip), vehicle: saline): 105 % of control
T/C (dose: 200.0 mg/kg/injection, schedule: Q01DX001 (ip), vehicle: saline): 103 % of control
T/C (dose: 256.0 mg/kg/injection, schedule: Q01DX006 (iv), vehicle: saline): 94 % of control
T/C (dose: 400.0 mg/kg/injection, schedule: Q01DX001 (ip), vehicle: saline): 100 % of control

c1ccc2c(c1)NC1CCN2C1 (stereo unspecified)
T/C (dose: 100.0 mg/kg/injection, schedule: Q04DX003 (ip), vehicle: saline with Tween-80): 109 % of control
T/C (dose: 200.0 mg/kg/injection, schedule: Q04DX003 (ip), vehicle: saline with Tween-80): 103 % of control
T/C (dose: 400.0 mg/kg/injection, schedule: Q04DX003 (ip), vehicle: saline with Tween-80): 97 % of control
